Experimental findings from US20240108623A1, “METHODS OF TREATING CANCER WITH POZIOTINIB” (BOARD OF REGENTS, THE UNIVERSITY OF TEXAS SYSTEM, priority 2021, published 2024) are described below.

What all share (assay): Ba/F3 cell drug screening, Cell Titer Glo
What all share (assay type): cell-based
A general note: ATP-based viability assays read luminescence as a measure of living cells.

The target of one assay is T1, EGFR L747P (Homo sapiens, UniProt P00533, L747P).
T1 construct: expressed in transfected cells; host or cells: Ba/F3 (retroviral transduction, pBabe-Puro based vectors)
Conditions: Ba/F3 cells expressing EGFR L747P; 72 hours. In a few lines: (§1)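 Seven-dose TKI treatment, 72 h, of sorted EGFR-mutant Ba/F3 cells in EGF-supplemented medium; CellTiter-Glo read-out normalized to vehicle. Curve-fit IC50 from technical triplicates across duplicate or triplicate biological repeats.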

The next assay has as its target T2, EGFR Ex19del (Homo sapiens, UniProt P00533, DEL746-750).
T2 construct: expressed in transfected cells; host or cells: Ba/F3 (retroviral, pBabe-Puro based vector)
Particulars: Ba/F3 cells expressing EGFR Ex19del; 72 hours. Put shortly: as §1

The target of the next assay is T3, EGFR L833V (Homo sapiens, UniProt P00533, L833V).
T3 construct: expressed in transfected cells; host or cells: Ba/F3 (retroviral, pBabe-Puro based vector)
Conditions: Ba/F3 cells expressing EGFR L833V; 72 hours. In a few lines: as §1

The target of the next assay is T4, EGFR L858R/L792H (Homo sapiens, UniProt P00533, L792H/L858R).
T4 construct: expressed in transfected cells; host or cells: Ba/F3 (retroviral transduction, pBabe-Puro based vectors)
Conditions: Ba/F3 cells expressing EGFR L858R/L792H; 72 hours. Put shortly:
as §1

The target in the next assay is T5, EGFR E709A (Homo sapiens, UniProt P00533, E709A).
T5 construct: expressed in transfected cells; host or cells: Ba/F3 (retroviral transduction, pBabe-Puro based vectors)
Particulars: Ba/F3 cells expressing EGFR E709A; 72 hours. Put shortly: as §1

A further assay concerns the target T6, EGFR S768I V774M (Homo sapiens, UniProt P00533, S768I/V774M).
T6 construct: host or cells: Ba/F3 (retroviral transduction, pBabe-Puro based vectors)
Particulars: Ba/F3 cells expressing EGFR S768I V774M; 72 hours. Put shortly: as §1

For a further assay, the target named is T7, EGFR L858R/T790M (Homo sapiens, UniProt P00533, L858R/T790M).
T7 construct: expressed in transfected cells; host or cells: Ba/F3 (retroviral transduction, pBabe-Puro based vectors)
Particulars: Ba/F3 cells expressing EGFR L858R/T790M; 72 hours. Put shortly: as §1

A further assay deals with T8, EGFR L858R T790M V843I (Homo sapiens, UniProt P00533, L858R/T790M/V843I).
T8 construct: expressed in transfected cells; host or cells: Ba/F3 (retroviral transduction, pBabe-Puro based vectors)
Conditions: Ba/F3 cells expressing EGFR L858R T790M V843I; 72 hours. In a few lines:
as §1

Another assay concerns the target T9, EGFR Ex19del/L792H (Homo sapiens, UniProt P00533, DEL746-750/L792H).
T9 construct: expressed in transfected cells; host or cells: Ba/F3 (retroviral transduction, pBabe-Puro based vectors)
Particulars: Ba/F3 cells expressing EGFR Ex19del/L792H; 72 hours. Put shortly: as §1

Another assay addresses T10, EGFR V769L (Homo sapiens, UniProt P00533, V769L).
T10 construct: expressed in transfected cells; host or cells: Ba/F3 (retroviral transduction, pBabe-Puro based vectors)
Conditions: Ba/F3 cells expressing EGFR V769L; 72 hours. In a few lines:
as §1

The next assay concerns the target T11, EGFR S784F (Homo sapiens, UniProt P00533, S784F).
T11 construct: expressed in transfected cells; host or cells: Ba/F3 (retroviral, pBabe-Puro based vector; created by GeneScript from EGFR WT)
Particulars: Ba/F3 cells expressing EGFR S784F; 72 hours. Put shortly: as §1

The next assay addresses T12, EGFR H773insNPH (Homo sapiens, UniProt P00533, INS773NPH).
T12 construct: expressed in transfected cells; host or cells: Ba/F3 (retroviral, pBabe-Puro based vector)
Conditions: Ba/F3 cells expressing EGFR H773insNPH; 72 hours. Put shortly:
as §1

For the next assay, the target named is T13, EGFR D770insNPG (Homo sapiens, UniProt P00533, INS770NPG).
T13 construct: expressed in transfected cells; host or cells: Ba/F3 (retroviral, pBabe-Puro based vector)
Conditions: Ba/F3 cells expressing EGFR D770insNPG; 72 hours. Put shortly: as §1

The target in a further assay is T14, EGFR Ex19del T854I (Homo sapiens, UniProt P00533, DEL746-750/T854I).
T14 construct: expressed in transfected cells; host or cells: Ba/F3 (murine pro-B cells), retroviral transduction with pBabe-Puro based vectors
Particulars: Ba/F3 cells expressing EGFR Ex19del T854I; 72 hours. In a few lines:
as §1

The target of the next assay is T15, EGFR G724S (Homo sapiens, UniProt P00533, G724S).
T15 construct: expressed in transfected cells; host or cells: Ba/F3 (retroviral transduction, pBabe-Puro based vectors)
Particulars: Ba/F3 cells expressing EGFR G724S; 72 hours. In a few lines: as §1

The next assay has as its target T16, EGFR Ex19del G724S (Homo sapiens, UniProt P00533, DEL746-750/G724S).
T16 construct: expressed in transfected cells; host or cells: Ba/F3 (retroviral transduction, pBabe-Puro based vectors)
Particulars: Ba/F3 cells expressing EGFR Ex19del G724S; 72 hours. Put shortly: as §1

Regarding `C=CC(=O)N1CCC(Oc2cc3c(Nc4ccc(Cl)c(Cl)c4F)ncnc3cc2OC)CC1` [Poziotinib], the “Response of Cells Comprising PACC EGFR Mutations to Second-Generation TKIs” value at EGFR L747P came out at 0.1338; on EGFR L858R/L792H, 0.07789; on EGFR E709A, 0.02334; at EGFR S768I V774M it was 0.1181; at EGFR Ex19del/L792H, 0.3177; on EGFR V769L it was 0.05673. Moreover, the “Response of Cells Comprising PACC EGFR Mutations to Second-Generation TKIs” value on EGFR Ex19del T854I is reported as 0.008664; at EGFR G724S, 0.2246; at EGFR Ex19del G724S, 0.4952. Further, the “Response of Cells Comprising Classical-Like EGFR Mutations to Second-Generation TKIs” value is recorded as 0.07456 on EGFR Ex19del, 0.004716 at EGFR L833V and 0.08572 on EGFR S784F. The “Response of Cells Comprising T790M-like-S EGFR Mutations to Second-Generation TKIs” value on EGFR L858R/T790M stood at 2.414; on EGFR L858R T790M V843I, 5.408. In addition, the “Response of Cells Comprising Ex20ins EGFR Mutations to Poziotinib” value at EGFR H773insNPH turned out to be 0.3855; on EGFR D770insNPG it was 0.2889.
